This is an account of results in PubChem BioAssay AID1996.

The structures appear in SMILES notation. In brackets after ≈: the same amount, converted by molar mass.

The conditions of this series: buffer; pH 7.4; 200.0 µM.
As for `O=C1Nc2ccccc2C1Cc1ccccc1` (stereo not given), the kinetic solubility (commonly solubility judged after dilution from a stock solution rather than from solid) was determined as 29 µg/mL (≈ 130 µM).
With `CN(C)/C=C/C(=O)c1cc(N2CCOCC2)ccc1[N+](=O)[O-]`, the kinetic solubility was greater than 45.8 µg/mL.
Consider `CC(NC(=O)COc1cccnc1[N+](=O)[O-])c1ccc(F)cc1` (stereo not given), for which the kinetic solubility was greater than 47.9 µg/mL.
For `O=C1N=c2ccccc2=C1c1sc(Nc2cccc(O)c2)nc1O`, the kinetic solubility is 0.7 µg/mL (≈ 2.07 µM).
With `COc1ccc(NC(=O)CCCCC(=O)Nc2ccc(OC)cc2OC)c(OC)c1`, the kinetic solubility came out at 12.4 µg/mL (≈ 29.8 µM).
Take `COc1ccccc1CCN=C(N)NS(=O)(=O)c1ccc(C)c(C)c1`: the kinetic solubility is 8.3 µg/mL (≈ 23 µM).
In turn, `CCN1CCc2c(OCC(=O)N3CCCc4ccccc43)cccc2C1=O` had a kinetic solubility greater than 54.7 µg/mL.
`CCCC(=O)Nc1nc(CC(=O)OCC)cs1` returned a kinetic solubility greater than 38.4 µg/mL.
On to `CN(C(=O)c1ccc2c(c1)OCO2)C1CCCCC1`, for which the solubility (kinetic) amounted to 38.4 µg/mL (≈ 147 µM).
The value for `CCOc1ccc(/C=C/C(=O)NC2CCCCC2)cc1` was less than 0.6 µg/mL; that for `Cc1cc(-c2nc(-c3ccc(C(C)(C)C)cc3)no2)no1` was less than 0.2 µg/mL.
With `CN(C(=O)c1cccc(NC(=O)Cc2ccccc2)c1)c1ccccc1` the figure was greater than 51.7 µg/mL; with `CN1C(=S)SC(/[N+]([O-])=C\c2ccccc2F)C1(C)C` (stereo not given), greater than 44.8 µg/mL; with `CC1CCCCC1NC(=O)COC(=O)COc1ccccc1F` (stereo not given), 35.3 µg/mL (≈ 109 µM).
For the molecule `CC1CN(C)CCC1OC(=O)c1ccccc1.Cl` (stereo not given), the kinetic solubility was greater than 40.5 µg/mL.
In the case of `O=c1c2cc(Cl)cc(Cl)c2nc2n1CCC2`, the solubility (kinetic) is 35 µg/mL (≈ 137 µM).
Take `Cc1ccc2c(CN3CC(C)CC(C)C3)cc(=O)oc2c1` (stereo not given): the solubility (kinetic) came to 4.3 µg/mL (≈ 15.1 µM).
Molecule `O=C(CN1C(=O)NC2(CCCC2)C1=O)Nc1nc(-c2ccccc2)cs1` had a kinetic solubility of 1.7 µg/mL (≈ 4.59 µM). This solubility kinetic lies about 2.5-fold lower than the previous one.
With `CCCOc1ccc(-c2cn3ccccc3n2)cc1` the figure was 2.3 µg/mL (≈ 9.12 µM); with `CNC(=O)COc1ccc2oc3c(c2c1)CCCC3`, 31 µg/mL (≈ 120 µM).
Regarding `COc1ccc(CCC(=O)NCCc2ccc(Cl)cc2)cc1`, the kinetic solubility worked out at 3.7 µg/mL (≈ 11.6 µM).
`COc1ccc(NS(=O)(=O)c2ccc(C)cc2)c([N+](=O)[O-])c1` displayed a solubility (kinetic) of 44.1 µg/mL (≈ 137 µM).
On to `COc1ccc(-c2cc(C(=O)OCC(=O)NC3CC3)c3ccccc3n2)cc1OC`, for which the kinetic solubility came out at 10 µg/mL (≈ 24.6 µM).
`Cc1cc(NC(=O)Nc2ccc(Cl)cc2)no1` displayed a solubility (kinetic) of 1.4 µg/mL (≈ 5.56 µM).
The value for `O=C(COc1ccccc1F)NC12CC3CC(CC(C3)C1)C2` was 6.6 µg/mL (≈ 21.8 µM); that for `Cc1ccc(CC(=O)Nc2nccs2)cc1C` was 3.3 µg/mL (≈ 13.4 µM).
Molecule `Cn1c(N)c(C(=O)COC(=O)CNC(=O)c2ccccc2)c(=O)n(C)c1=O` gave a kinetic solubility greater than 56.2 µg/mL.
`O=C(NC(=S)N1CCCCCC1)c1ccccc1` showed a kinetic solubility greater than 39.4 µg/mL.
Molecule `CC(C)[C@H](Nc1ncnc2c1oc1ccccc12)C(=O)O` registered a solubility (kinetic) greater than 42.8 µg/mL.
The value for `CN(C)c1ccc(C2CC(=O)C=C(Nc3ccccc3N)C2)cc1` (stereo not given) was 48.2 µg/mL (≈ 150 µM).
The value for `Cc1ccc(C(=O)NC(=S)NCc2cccnc2)cc1C` was 26.9 µg/mL (≈ 89.8 µM); that for `CN=C1S/C(=C\c2ccc(Cl)cc2)C(=O)N1C` was 1.2 µg/mL (≈ 4.5 µM); that for `CCCc1ccc(C(=O)O/N=C(\N)c2ccccn2)cc1` was 3.1 µg/mL (≈ 10.9 µM).
The value for `COc1cccc(/C=C/C(=O)OCC(=O)NCCCc2ccccc2)c1OC` was 5.6 µg/mL (≈ 14.6 µM); that for `COc1ccccc1C(=O)NCC(=O)N1CCN(C/C=C/c2ccccc2)CC1` was greater than 59 µg/mL.
The molecule `O=C(Nc1ccccc1N1CCCC1)c1cccc(F)c1` yielded a solubility (kinetic) greater than 42.6 µg/mL.
In the case of `COc1ccc(CNC(=O)C(C)N(C)Cc2cccc(F)c2)cc1` (stereo not given), the solubility (kinetic) was 26.1 µg/mL (≈ 79 µM).
As to `COc1ccccc1C(=O)NC(=O)Nc1c(C)cc(C)cc1C`, the kinetic solubility worked out at 0.7 µg/mL (≈ 2.24 µM). Against the preceding molecule, the solubility kinetic is about 37-fold lower.
With `COc1ccc(C(=O)N2CCN=C2SC)cc1`, the solubility (kinetic) was greater than 37.5 µg/mL.
As for `C=CCn1c(O)c(C(C)=Nc2ccc3c(c2)CCC3)c(=O)[nH]c1=O`, the kinetic solubility amounted to 0.8 µg/mL (≈ 2.46 µM).
As for `Cc1nc(SCC(=O)NC2CC2)c2c(C)c(C)sc2n1`, the solubility (kinetic) turned out to be 11.6 µg/mL (≈ 37.7 µM).
`c1ccc(Nc2nc(-c3ccccc3)ns2)cc1` yielded a solubility (kinetic) of less than 0.2 µg/mL.
In turn, `Cc1cc(C)c(OCCn2ccnc2)c(C)c1` displayed a solubility (kinetic) of 31.5 µg/mL (≈ 137 µM).
The value for `CCOC(=O)N1CCN(c2ccc(S(=O)(=O)N3CCOCC3)cn2)CC1` was 47 µg/mL (≈ 122 µM).
`N#CC1(NC(=O)COC(=O)/C=C/c2ccc3ccccc3n2)CCCCC1`: the solubility (kinetic) stood at 3 µg/mL (≈ 8.25 µM).
The value for `CC(C)(C)NC(=O)COc1ccc(S(=O)(=O)N2CCCC2)cc1` was greater than 51.1 µg/mL; that for `Cc1ccc(S(=O)(=O)N2CCCCC2)cc1NS(=O)(=O)c1ccccc1F` was greater than 61.9 µg/mL.
Take `C=CCN1CC(C)/C(=N\O)CC1C` (stereo not given): the solubility (kinetic) was found to be 26.4 µg/mL (≈ 145 µM).
The value for `Cc1cccc(N2CCN(CC3CCCCC3)CC2)c1C` was 2.9 µg/mL (≈ 10.1 µM).
In turn, `O=C(Nc1cccc(S(=O)(=O)NC2=NCCC2)c1)c1ccc(F)cc1` yielded a kinetic solubility greater than 54.2 µg/mL.
Molecule `CCOc1cc(CNc2ccc(N3CCCC3)cc2)cc(Cl)c1OC` came in with a kinetic solubility of less than 0.4 µg/mL.
The molecule `Cc1ccccc1-c1noc(C(C)NC(=O)c2ccco2)n1` (stereo not given) came in with a kinetic solubility of 37.5 µg/mL (≈ 126 µM).
Molecule `O=C(COC(=O)c1c(Cl)cccc1Cl)NCC1CCCO1` (stereo not given) yielded a solubility (kinetic) greater than 49.8 µg/mL.
Turning to `O=C(NC1CCCC1)C1CC(=O)N(c2ccccc2)C1` (stereo not given), the solubility (kinetic) is greater than 40.9 µg/mL.
Consider `N#Cc1ccc(OCC(=O)Nc2ccncc2)cc1`, for which the kinetic solubility worked out at 36 µg/mL (≈ 142 µM).
With `CCNC(=O)C(=O)Nc1cc2c3c(c1)CCN3C(=O)CC2` the figure was greater than 43.1 µg/mL.
The value for `CCOC(=O)C1CCN(C(=O)c2cc3cc(C)ccc3[nH]2)CC1` was 37 µg/mL (≈ 118 µM); that for `COc1ccc(S(=O)(=O)N2CCCC2c2cccs2)cc1` (stereo not given) was 27.4 µg/mL (≈ 84.7 µM).
As to `O=S(=O)(CCN1CCOCC1)c1ccc(OC(F)(F)F)cc1`, the kinetic solubility is greater than 50.9 µg/mL.
`CCOc1ccc(CC(=O)N2CCN=C2SC)cc1` returned a kinetic solubility greater than 41.8 µg/mL.
With `Cc1cc(F)ccc1S(=O)(=O)Nc1ccc(C(=O)N2CCCCC2)cc1` the figure was greater than 56.5 µg/mL.
On to `CN(C)c1nc(Nc2ccc(F)cc2)nc(Oc2ccc(F)cc2)n1`, for which the kinetic solubility was less than 0.1 µg/mL.
Regarding `Oc1cccc(C=Nc2cccc3ccccc23)c1O`, the kinetic solubility was 18.3 µg/mL (≈ 69.5 µM).
With `Cc1onc(-c2ccccc2)c1NC(=O)N(CCC#N)Cc1cccs1` the figure was 54.4 µg/mL (≈ 148 µM); with `Cc1ccc(C)c(NC(=S)NCc2ccccc2)c1`, 40.2 µg/mL (≈ 149 µM).
On to `COc1ccc(CCNC(=O)c2cccs2)cc1`, for which the kinetic solubility amounted to 38.7 µg/mL (≈ 148 µM).
`Cc1ccc(C(=O)NC(C)c2ccncc2)o1` (stereo not given) showed a kinetic solubility greater than 34.5 µg/mL.
Molecule `O=C(O)c1nccnc1C(=O)NCc1csc2ccc(Cl)cc12` gave a solubility (kinetic) of 46.4 µg/mL (≈ 133 µM).
In turn, `O=C(Nc1ccccc1C(=O)NCCc1ccccc1)c1cnccn1` yielded a solubility (kinetic) of 3.2 µg/mL (≈ 9.24 µM).
Regarding `CC(=O)Nc1ccc(-c2csc(-c3cccnc3)n2)cc1`, the solubility (kinetic) was found to be 5.9 µg/mL (≈ 20 µM).
The value for `CCCN(CCC)S(=O)(=O)c1cc2c3c(c1)CCN3C(=O)CC2` was greater than 50.5 µg/mL.
`COc1ccc(C(=O)OCC(=O)NC2CCCC2)cc1OC`: the solubility (kinetic) was greater than 46.1 µg/mL.
For the molecule `O=C(CSc1ncnc2c1oc1ccccc12)NC1CCCC1`, the kinetic solubility turned out to be 3.4 µg/mL (≈ 10.4 µM).
`COc1cccc(Cn2c(=O)oc3ccccc32)c1` yielded a kinetic solubility of 25 µg/mL (≈ 97.9 µM).
Consider `Cc1ccccc1CNC(=O)CN1C(=O)c2ccccc2S1(=O)=O`, for which the kinetic solubility is 11.2 µg/mL (≈ 32.5 µM). Against the preceding molecule, the solubility kinetic is about 2.2-fold lower.
